Test results published in patent US11472811B2, “Pyrazolotriazolopyrimidine derivatives as A2A receptor antagonist” (BEIGENE, LTD., priority 2018, dated 2022).
Read-outs that look alike come from different tables or passages of the source.

Key:
[1] = biological target: human adenosine A2A receptor (A2AR) (Homo sapiens (Human), UniProt P29274); test: Adenosine receptor binding assay, A2A (radioligand competitive binding); conditions: membrane homogenates from HEK293 cells transfected with A2AR, 6 nM [3H]CGS21680
Sequence of human adenosine A2A receptor (A2AR) (P29274 whole entry): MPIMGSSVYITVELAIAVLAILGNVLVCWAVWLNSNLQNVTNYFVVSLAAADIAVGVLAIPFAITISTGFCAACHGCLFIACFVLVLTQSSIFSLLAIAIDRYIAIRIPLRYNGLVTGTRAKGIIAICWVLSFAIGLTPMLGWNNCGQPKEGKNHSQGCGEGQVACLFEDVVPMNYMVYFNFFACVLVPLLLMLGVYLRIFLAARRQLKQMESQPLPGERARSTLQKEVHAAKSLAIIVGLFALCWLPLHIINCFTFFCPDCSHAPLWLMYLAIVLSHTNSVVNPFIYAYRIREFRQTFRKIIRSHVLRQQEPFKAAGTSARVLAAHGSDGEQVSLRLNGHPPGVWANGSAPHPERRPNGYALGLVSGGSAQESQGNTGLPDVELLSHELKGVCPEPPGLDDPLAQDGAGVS
Description: (§1) Binding affinity of test compounds to four human adenosine receptors, A1, A2A, A2B and A3 was determined in radioligand competitive binding assay (conducted by Cerep, France) using following protocols. For A1 receptor (A1R), membrane homogenates from CHO cells transfected with A1R were incubated for 60 min at 22° C. with 1 nM [3H]DPCPX in the absence or presence of the test compound in a buffer containing 50 mM Tris-HCl (pH 7.4), 5 mM MgCl2, 1 mM EDTA/Tris and 2 UI/mL ADA. For A2AR, membrane homogenates from HEK293 cells transfected with A2AR were incubated for 120 min at 22° C. with 6 nM [3H]CGS21680 in the absence or presence of the test compound in a buffer containing 50 mM Tris-HCl (pH 7.4), 10 mM MgCl2, and 2 UI/mL ADA. For A2B receptor (A2BR), membrane homogenates from HEK293 cells transfected with A2BR were incubated for 60 min at 22° C. with 5 nM [3H]CPX in the absence or presence of the test compound in a buffer containing 10 mM Hepes/Tris (pH 7), 1 mM MgCl2, and 1 mM EDTA. For A3 receptor (A3R), membrane homogenates from HEK293 cells transfected with A3R were incubated for 120 min at 22° C. with 0.15 nM [125I] AB-MECA in the absence or presence of the test compound in a buffer containing 50 mM Tris-HCl (pH 7.4), 5 mM MgCl2, 1 mM EDTA and 2 UI/mL ADA. Nonspecific binding was determined in the presence of unlabeled 1 μM DPCPX, 10 μM NECA, 100 μM NECA, and 1 μM IB-MECA in A1R, A2AR, A2BR, A3R binding assays, respectively. Following incubation, the samples are rapidly filtered and washed with ice-cold 50 mM Tris-HCl. Then filters are dried and counted for radioactivity in a scintillation counter (Topcount, Packard) using a scintillation cocktail (Microscint 0, Packard). Duplicate experiments were performed for each assay. The results are expressed as a percent inhibition of control radioligand specific binding.

[2] = biological target: human adenosine A1 receptor (A1R) (Homo sapiens (Human), UniProt P30542); test: Adenosine receptor binding assay, A1 (radioligand competitive binding); conditions: membrane homogenates from CHO cells transfected with A1R, 1 nM [3H]DPCPX
Sequence of human adenosine A1 receptor (A1R) (P30542 whole entry): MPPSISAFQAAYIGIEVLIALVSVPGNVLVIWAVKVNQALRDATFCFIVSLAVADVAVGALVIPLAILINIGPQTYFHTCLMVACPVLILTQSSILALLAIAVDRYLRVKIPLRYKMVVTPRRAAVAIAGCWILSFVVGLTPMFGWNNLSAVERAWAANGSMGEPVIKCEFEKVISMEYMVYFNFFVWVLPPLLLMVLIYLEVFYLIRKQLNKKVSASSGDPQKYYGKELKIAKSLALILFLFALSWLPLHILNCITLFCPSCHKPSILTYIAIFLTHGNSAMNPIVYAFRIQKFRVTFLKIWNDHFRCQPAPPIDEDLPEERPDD
Description: as §1

[3] = biological target: human A2A receptor (A2AR) (Homo sapiens (Human), UniProt P29274); test: Luciferase reporter assay (HEK293-A2AR-luc2p/CRE/Hygro cells); type: cell-based; conditions: 3 nM CGS21680, 5 h incubation
Sequence of human A2A receptor (A2AR) (P29274 whole entry): as the sequence (P29274 whole entry) above
Outline: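 HEK293 cells stably expressing human A2AR and a CRE-luc2P reporter were seeded in 1% FBS with 1 U/mL adenosine deaminase. After 18 h they were stimulated 5 h with 3 nM CGS21680 plus compound (0.1–10000 nM), then luciferase luminescence was read. IC50 was taken from inhibition curves, with CGS21680 alone set as 100%.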

Mouse BBB assay = type: in vivo; conditions: oral 10 mg/kg; for Brain (ng · g^−1): at 1 h
Description: Mice were acclimated for 1 week prior to use at 18-30 g body weight. Fasted mice were dosed orally at 10 mg/kg dose. At 1, 2 and 4 hours postdose, plasma samples from cardiac blood collected in tubes containing K2EDTA as the anticoagulant, and excised cerebral hemispheres were immediately frozen and stored at −80° C. until bioanalysis. Total concentrations of the compound were determined by LC-MS/MS. Brain homogenate concentrations were converted to brain concentrations for the calculations of brain-to-plasma ratios.

[4] = BLOQ: below limit of quantitation, Brain is 5 ng/g
[5] = limit of quantitation plasma 1 ng/ml, read-out: Plasma
[6] = BLOQ: below limit of quantitation, Brain is 5 ng/g, read-out: Brain

C[C@](C(=O)NCC1(O)COC1)(c1ccccc1)n1ncc2c1nc(N)n1nc(-c3ccco3)nc21 [Example 31B, (R)-2-(5-amino-2-(furan-2-yl)-7H-pyrazolo[4,3-e][1,2,4]triazolo[1,5-c]pyrimidin-7-yl)-N-((3-hydroxyoxetan-3-yl)methyl)-2-phenylpropanamide]
Ki [1]: 1.2 nM | Ki [2]: 180 nM | IC50 [3]: 2.3 nM | Brain (ng · g^−1) (Mouse BBB assay; [4]): BLOQ | concentration at 1 h (Mouse BBB assay; [5]): 177 ng/mL

C[C@](C(=O)N[C@@H]1CCC[C@@H]1O)(c1ccccc1)n1ncc2c1nc(N)n1nc(-c3ccco3)nc21 [Example 48B, (R)-2-(5-amino-2-(furan-2-yl)-7H-pyrazolo[4,3-e][1,2,4]triazolo[1,5-c]pyrimidin-7-yl)-N-((1R,2S)-2-hydroxycyclopentyl)-2-phenylpropanamide]
Ki [1]: 2.2 nM | Ki [2]: 12 nM | IC50 [3]: 1.6 nM | concentration at 1 h (Mouse BBB assay; [6]): 8.69 ng/g | concentration at 1 h (Mouse BBB assay; [5]): 56.3 ng/mL

CC1(O)CCC(NC(=O)[C@@](C)(c2ccccc2)n2ncc3c2nc(N)n2nc(-c4ccco4)nc32)CC1 (stereo partly drawn) [Example 69B, (R)-2-(5-amino-2-(furan-2-yl)-7H-pyrazolo[4,3-e][1,2,4]triazolo[1,5-c]pyrimidin-7-yl)-(cis)-N-(4-hydroxy-4-methylcyclohexyl)-2-phenylpropanamide]
Ki [1]: 1.6 nM | Ki [2]: 540 nM | IC50 [3]: 3.9 nM | Brain (ng · g^−1) (Mouse BBB assay; [4]): BLOQ | concentration at 1 h (Mouse BBB assay; [5]): 29.4 ng/mL

C[C@](C(=O)N[C@H]1CC[C@@H](O)CC1)(c1ccccc1)n1ncc2c1nc(N)n1nc(-c3ccco3)nc21 [Example 76B, (R)-2-(5-amino-2-(furan-2-yl)-7H-pyrazolo[4,3-e][1,2,4]triazolo[1,5-c]pyrimidin-7-yl)-(cis)-N-(4-hydroxycyclohexyl)-2-phenylpropanamide]
Ki [1]: 1.6 nM | Ki [2]: 150 nM | IC50 [3]: 2.2 nM | Brain (ng · g^−1) (Mouse BBB assay; [4]): BLOQ | concentration at 1 h (Mouse BBB assay; [5]): 39.1 ng/mL

Nc1nc2c(cnn2[C@H](C(=O)NCC2(O)COC2)c2ccccc2)c2nc(-c3ccco3)nn12 [Example 82B]
Ki [1]: 1.7 nM | Ki [2]: 7.2 nM | IC50 [3]: 3.8 nM

CC(C)(C(=O)NCC1(O)COC1)n1ncc2c1nc(N)n1nc(-c3ccco3)nc21 [Example 138, 2-(5-amino-2-(furan-2-yl)-7H-pyrazolo[4,3-e][1,2,4]triazolo[1,5-c]pyrimidin-7-yl)-N-((3-hydroxyoxetan-3-yl)methyl)-2-methylpropanamide]
IC50 [3]: 33.2 nM

COc1ccccc1C(C)(C(=O)N[C@H]1CC[C@](C)(O)CC1)n1ncc2c1nc(N)n1nc(-c3ccco3)nc21 (stereo partly drawn) [Example 140, 2-(5-amino-2-(furan-2-yl)-7H-pyrazolo[4,3-e][1,2,4]triazolo[1,5-c]pyrimidin-7-yl)-N-((cis)-4-hydroxy-4-methylcyclohexyl)-2-(2-methoxyphenyl)propanamide]
IC50 [3]: 1.2 nM

C[C@](C(=O)NCc1ncccc1C(F)(F)F)(c1ccccc1)n1ncc2c1nc(N)n1nc(-c3ccco3)nc21 [Example 141B, (R)-2-(5-amino-2-(furan-2-yl)-7H-pyrazolo[4,3-e][1,2,4]triazolo[1,5-c]pyrimidin-7-yl)-2-phenyl-N-((3-(trifluoromethyl)pyridin-2-yl)methyl)propanamide]
IC50 [3]: 1.1 nM

C[C@](C(=O)NCc1ccc(C(F)(F)F)cn1)(c1ccccc1)n1ncc2c1nc(N)n1nc(-c3ccco3)nc21 [Example 142B, (R)-2-(5-amino-2-(furan-2-yl)-7H-pyrazolo[4,3-e][1,2,4]triazolo[1,5-c]pyrimidin-7-yl)-2-phenyl-N-((5-(trifluoromethyl)pyridin-2-yl)methyl)propanamide]
IC50 [3]: 1 nM

C[C@](C(=O)NCc1cc(C(F)(F)F)ccn1)(c1ccccc1)n1ncc2c1nc(N)n1nc(-c3ccco3)nc21 [Example 143B, (R)-2-(5-amino-2-(furan-2-yl)-7H-pyrazolo[4,3-e][1,2,4]triazolo[1,5-c]pyrimidin-7-yl)-2-phenyl-N-((4-(trifluoromethyl)pyridin-2-yl)methyl)propanamide]
IC50 [3]: 5.8 nM

C[C@](C(=O)NCc1cccc(C(F)(F)F)n1)(c1ccccc1)n1ncc2c1nc(N)n1nc(-c3ccco3)nc21 [Example 144B, (R)-2-(5-amino-2-(furan-2-yl)-7H-pyrazolo[4,3-e][1,2,4]triazolo[1,5-c]pyrimidin-7-yl)-2-phenyl-N-((6-(trifluoromethyl)pyridin-2-yl)methyl)propanamide]
IC50 [3]: 2.1 nM

C[C@](C(=O)NC1CCSCC1)(c1ccccc1)n1ncc2c1nc(N)n1nc(-c3ccco3)nc21 [Example 145B, (R)-2-(5-amino-2-(furan-2-yl)-7H-pyrazolo[4,3-e][1,2,4]triazolo[1,5-c]pyrimidin-7-yl)-2-phenyl-N-(tetrahydro-2H-thiopyran-4-yl)propanamide]
IC50 [3]: 9 nM

CN1CCN(CCNC(=O)C(C)(c2ccccc2)n2ncc3c2nc(N)n2nc(-c4ccco4)nc32)CC1 (stereo not drawn) [Example 147, 2-(5-amino-2-(furan-2-yl)-7H-pyrazolo[4,3-e][1,2,4]triazolo[1,5-c]pyrimidin-7-yl)-N-(2-(4-methylpiperazin-1-yl)ethyl)-2-phenylpropanamide]
IC50 [3]: 24.7 nM

CN1CCN(CCNC(=O)[C@@](C)(c2ccccc2)n2ncc3c2nc(N)n2nc(-c4ccco4)nc32)CC1 [Example 147B, (R)-2-(5-amino-2-(furan-2-yl)-7H-pyrazolo[4,3-e][1,2,4]triazolo[1,5-c]pyrimidin-7-yl)-N-(2-(4-methylpiperazin-1-yl)ethyl)-2-phenylpropanamide]
IC50 [3]: 18.9 nM

C[C@](C(=O)NCCN1CCC(O)CC1)(c1ccccc1)n1ncc2c1nc(N)n1nc(-c3ccco3)nc21 [Example 148B, (R)-2-(5-amino-2-(furan-2-yl)-7H-pyrazolo[4,3-e][1,2,4]triazolo[1,5-c]pyrimidin-7-yl)-N-(2-(4-hydroxypiperidin-1-yl)ethyl)-2-phenylpropanamide]
IC50 [3]: 19.3 nM

C[C@](C(=O)NCCC1CCC(O)CC1)(c1ccccc1)n1ncc2c1nc(N)n1nc(-c3ccco3)nc21 (stereo partly drawn) [Example 149B, (R)-2-(5-amino-2-(furan-2-yl)-7H-pyrazolo[4,3-e][1,2,4]triazolo[1,5-c]pyrimidin-7-yl)-N-(2-(4-hydroxycyclohexyl)ethyl)-2-phenylpropanamide]
IC50 [3]: 1.7 nM

Cc1cccc(CCNC(=O)[C@@](C)(c2ccccc2)n2ncc3c2nc(N)n2nc(-c4ccco4)nc32)n1 [Example 150B, (R)-2-(5-amino-2-(furan-2-yl)-7H-pyrazolo[4,3-e][1,2,4]triazolo[1,5-c]pyrimidin-7-yl)-N-(2-(6-methylpyridin-2-yl)ethyl)-2-phenylpropanamide]
IC50 [3]: 26.5 nM

CC(=O)O[C@H]1CC[C@@H](NC(=O)[C@@](C)(c2ccccc2)n2ncc3c2nc(N)n2nc(-c4ccco4)nc32)CC1 [Example 151B, (cis)-4-((R)-2-(5-amino-2-(furan-2-yl)-7H-pyrazolo[4,3-e][1,2,4]triazolo[1,5-c]pyrimidin-7-yl)-2-phenylpropanamido)cyclohexyl acetate]
IC50 [3]: 2 nM

C[C@](C(=O)O)(c1ccccc1)n1ncc2c1nc(N)n1nc(-c3ccco3)nc21 [Intermediate-Ib, (R)-2-(5-amino-2-(furan-2-yl)-7H-pyrazolo[4,3-e][1,2,4]triazolo[1,5-c]pyrimidin-7-yl)-2-phenylpropanoic acid]
IC50 [3]: 567 nM

COCCOc1ccc(N2CCN(CCn3ncc4c3nc(N)n3nc(-c5ccco5)nc43)CC2)cc1 [Preladenant, reference compound]
concentration at 1 h (Mouse BBB assay; [6]): 258 ng/g | concentration at 1 h (Mouse BBB assay; [5]): 197 ng/mL
